Data set [1] is described as follows: Microsomal stability assay, mouse liver microsomes. Conditions: pooled liver microsomes, pH 7.4, mouse liver microsomes 0.5 mg/mL, NADPH. In kind it is in vitro ADME. The procedure:
(§1) Microsomal stability was determined using 0.5 mg/mL of pooled human, mouse, or rat liver microsomes (Thermo Fisher Scientific) in 90 mM TRIS-Cl buffer (pH 7.4) containing 2 mM NADPH and 2 mM MgCl2. Test compounds (10 μM) were added, and the resulting mixture was incubated at 37 °C for 10, 60, 120, and 180 min. The reactions were terminated by the addition of four volumes of ice-cold methanol, followed by vigorous mixing. The samples were left at −20 °C for 30 min and then stored at 4 °C overnight. The next day, samples were centrifuged, and supernatants were diluted with four volumes of 30% methanol in water. Zero time points were prepared by adding ice-cold methanol to the mixture of compounds and cofactors prior to the addition of microsomes. The samples were then analyzed using the Echo-MS system (SCIEX) with MRM transition monitoring, except for compound 3af, which was analyzed by LC–MS/MS as described in the plasma stability assay.

Data set [2] in a line: Plasma protein binding assay (rapid equilibrium dialysis), rat plasma. In kind it is in vitro ADME. The note with it: fraction bound, read-out: plasma protein binding Fb rat (converted). The procedure:
(§2) Test compound (10 μM) was incubated at 37 °C for 4 h with mouse, rat, or human plasma (Biowest) in the donor well of a rapid equilibrium dialysis plate (Thermo Fisher Scientific). PBS was placed in the acceptor well. To stop the assay, samples were collected from both wells, and an equal volume of plasma was added to the PBS sample, and vice versa. Proteins were then precipitated by adding three volumes of ice-cold methanol. Samples were mixed gently, kept at −20 °C for 30 min, and then stored at 4 °C overnight. The next day, the samples were centrifuged, and the supernatants were diluted with four volumes of 30% methanol in water. The samples were then analyzed using the Echo-MS system (SCIEX) with MRM transition monitoring, except for compound 3af, which was analyzed by LC–MS/MS as described in the plasma stability assay.

The nature of data set [3]: Microsomal stability assay, human liver microsomes. In kind it is in vitro ADME. Conditions: pooled liver microsomes, pH 7.4, human liver microsomes 0.5 mg/mL, NADPH. As for the experimental part:
as §1

The nature of data set [4]: Plasma protein binding, summary across species. Conditions: summary across human, mouse and rat plasma. It is filed as in vitro ADME. The procedure: as §2
Data set [5] has as its system LPS-stimulated macrophage-like THP1 cells (TNFα secretion). Put plainly: Anti-inflammatory potential: TNFα secretion in LPS-stimulated PMA-differentiated THP1 cells. It is filed as cell-based, human. Conditions: (+)PMA THP1, 1 μg/mL LPS, 24 h, up to 300 μM. The procedure: Cells were differentiated overnight into macrophage-like phenotypes by treatment with 10 ng/mL PMA and subsequently stimulated with 1 μg/mL lipopolysaccharide (LPS; Invitrogen, Thermo Fisher Scientific) to induce a proinflammatory response. […] After 24 h of LPS and compound exposure, cell culture supernatants were collected and analyzed for TNFα levels using a bead-based multiplex immunoassay (ProcartaPlex Human Basic Kit and TNFα Human ProcartaPlex Simplex Kit, both Invitrogen, Thermo Fisher Scientific). Flow cytometry readout was used as previously described. TNFα concentrations were calculated using a standard curve generated in GraphPad Prism 10 (GraphPad Software, San Diego, CA). Cells or beads from screening assays prepared for flow cytometry were analyzed by the CytoFlex S instrument (Beckman Coulter). Data acquisition was performed using CytExpert software (v2.5, Beckman Coulter). Debris was excluded by forward and side scatter gating, followed by doublet exclusion. Data were analyzed using FlowJo software (v10, BD Biosciences).

The nature of data set [6]: Plasma stability assay, mouse plasma. It is filed as in vitro ADME. Conditions: 37 °C. As for the experimental part: Test compounds (10 μM) were incubated with mouse, rat, or human pooled plasma from 50 donors (Biowest) at 37 °C for 20, 60, and 120 min. Reactions were terminated by adding four volumes of ice-cold methanol, followed by vigorous mixing. Samples were kept at −20 °C for 30 min and then stored at 4 °C overnight. The next day, samples were centrifuged, and supernatants were diluted with four volumes of 30% methanol in water. Zero time points were prepared by adding ice-cold methanol to the compound prior to the addition of plasma. Samples were then analyzed on an Echo MS system (SCIEX) using multiple reaction monitoring (MRM). The only exception was compound 3af, which was analyzed by LC–MS/MS (SCIEX 6500 triple quadrupole) due to its weak ionization in Echo-MS.

The test system of data set [7] is TGFβ-stimulated LX2 hepatic stellate cells. As to the kind of experiment: Antifibrotic efficacy: profibrotic gene expression in TGFβ-stimulated LX2 hepatic stellate cells (RT-qPCR). The note with it: TGFβ-stimulated LX2, 48 h, RT-qPCR normalized to ACTB. It is filed as cell-based, human. As for the experimental part:
LX2 cells were then stimulated with transforming growth factor-β1 (TGFβ1; PeproTech, Thermo Fisher Scientific) at 5 ng/mL to induce profibrotic signaling. […] After 48 h of treatment, cells were harvested into 100 μL RA1 buffer, and total RNA was then isolated using the NucleoSpin 96 RNA Kit (Macherey-Nagel, Düren, Germany) and reverse-transcribed into cDNA using the LunaScript RT SuperMix Kit (New England Biolabs, Ipswich, MA, USA). Quantitative real-time PCR (RT-qPCR) was used to determine mRNA expression levels of selected profibrotic markers: αSMA (ACTA2), collagen α-2(I) chain (COL1A2), and fibronectin 1 (FN1), and the housekeeping gene β-actin (ACTB). Amplification was carried out using Luna Universal qPCR Master Mix (New England Biolabs) and primer pairs for individual genes as follows: ACTA2: forward primer: [NT], reverse primer: [NT]; COL1A2: forward primer: [NT], reverse primer: [NT]; FN1: forward primer: [NT], reverse primer: [NT]; ACTB: forward primer: [NT], reverse primer: [NT] (Eurofins Genomics). Data were normalized to ACTB expression and analyzed using the ΔΔCt method.

A short description of data set [8]: Plasma protein binding assay (rapid equilibrium dialysis), human plasma. It is filed as in vitro ADME. The note with it: fraction bound, read-out: plasma protein binding Fb human (converted). The procedure: as §2
The nature of data set [9]: Cytotoxicity assay, THP1. It is filed as cell-based. Conditions: human, THP1 cells, viability dye, flow cytometry. As for the experimental part: To evaluate in vitro cytotoxicity and support its potential application in inflammatory and fibrotic disease models, the following panel of cell lines, representing the relevant biological systems, was used: HEK293, HepG2, THP1, Jurkat E6.1, and LX2. HEK293, HepG2, and Jurkat E6.1 cells were seeded at 400,000 cells/mL, THP1 cells at 500,000 cells/mL, and LX2 cells at 200,000 cells/mL in 96-well plates (cell culture-treated, VWR) in 100 μL/well. Cells were treated with the tested compounds in a serial dilution (300, 100, 33.3, 11.1, and 3.7 μM) for 24 h. Untreated cells served as negative controls to establish the baseline viability threshold. Cell viability was assessed using a viability dye (Zombie Violet Fixable Viability Kit, BioLegend) following the manufacturer’s instructions and analyzed by flow cytometry (see below).
Cells or beads from screening assays prepared for flow cytometry were analyzed by the CytoFlex S instrument (Beckman Coulter). Data acquisition was performed using CytExpert software (v2.5, Beckman Coulter). Debris was excluded by forward and side scatter gating, followed by doublet exclusion. Data were analyzed using FlowJo software (v10, BD Biosciences).

Structures are written as SMILES.

Regarding `CC(=O)N(c1cc(C(=O)O)cc2[nH]ccc12)[C@@H]1O[C@H](CO)[C@@H](S[C@@H]2O[C@H](CO)[C@H](O)[C@H](n3cc(-c4cccc(F)c4)nn3)[C@H]2O)[C@H](O)[C@H]1O` [Compound 11, N-[4-S-(3-Deoxy-3-(4-(3-fluorophenyl)-1H-1,2,3-triazol-1-yl)-β-D-galactopyranosyl)-4-thio-β-D-glucopyranosyl]-N-(6-carboxy-1H-indol-4-yl)acetamide], the microsomal CLint at 10 μM in [1] and in data set [3] was under 2 µL/min/mg each time. The fraction unbound at 4 h, 10 μM in data set [2] was 0.1; in data set [4] it was 0.1 to 0.78; in data set [8], 0.55. The “LPS-induced TNFα secretion” value in [5] was “no suppression”. This compound came in with a fraction remaining at 2 h, 10 μM in data set [6] of 100 ± 3%. For the same compound, the “ACTA2 mRNA expression” value in data set [7] is “dose-dependent downregulation”. The “COL1A2 mRNA expression” value in [7] is recorded as “dose-dependent downregulation”. In [7], the “FN1 mRNA expression” value was “dose-dependent downregulation”. Besides, in data set [9], the CC50 at 24 h is over 300 µM.

Values taken from paper PMC12670426 (Journal of Medicinal Chemistry, 2025).
